Laboratory results reported in patent US20140322744A1, “CLONABLE TAG FOR CORRELATIVE LIGHT AND ELECTRON MICROSCOPY LABELING” (INSTITUT CURIE, priority 2011, published 2014).

System: E. coli K-12
Assay: Minimal Inhibitory Concentration (MIC) growth test of EuCl3
Type: cell-based
Excerpt: The inventors were first interested in evaluating Eu toxicity in their working conditions. To this purpose, they have submitted E. coli to a serial of growing tests called Minimal Inhibitory Concentration (MIC). This test aimed to determine the lowest concentration able to inhibit the bacteria growth. It consisted in growing bacteria in presence of several concentrations of the tested compound.
Serial dilution series of the substance to be tested were inoculated with bacteria at 0.3 D.O550 nm diluted 1/16000 in culture medium. D.O550 nm was followed until stationary phase. Minimal concentration of the test substance preventing stationary phase was considered as MIC.
For the Eu MIC determination, the inventors have tested EuCl3 concentrations between 100 μM and 2 mM. E. coli K-12 and pBAD arabinose inducible MTtag transformed E. coli K-12 were tested. E. coli K12 were transformed by electroporation with the pBAD plasmid down control of BAD promoter (Guzman, L. M., et al. J Bacteriol 177, 4121-4130 (1995); Khlebnikov, A. & Keasling, J. D. Biotechnol. Prog. 18, 672-674 (2002)). Bacteria pre-cultures were produced at 37° C. in Luria-Bertani (LB) medium with added ampicillin ([…]) in transformed strain. The pre-cultures were used to inoculate tubes of minimum media M9 (with or without ampicillin) until exponential phase D.O550 nm≈0.3. Then, 1/16000 dilutions were prepared in M9 medium (with or without ampicillin). 1 μl of the diluted bacteria were added to 200 μl of M9-EuCl3 at different concentrations in 96 wells plates. Bacterial grow was followed until stationary phase. The D.O550 nm was measured on a Tecan Infinite 200 PRO.

## [Cl][Eu]([Cl])[Cl] [EuCl3]
E. coli K-12 MG1655 growth curve, several concentrations of Europium (FIG. 1)
  Effect on bacterial growth: doesn't have a dramatic negative effect on bacterial growth
E. coli K-12 and MTtag transformed E. coli K-12, M9 medium, 100 μM to 2 mM tested, repeated 10 times
  MIC: EuCl3 concentration until which bacteria is viable: higher than 2 mM
M9 medium, maximal concentration tested 2 mM
  Precipitation above maximal concentration tested: precipitates at higher concentrations
Does not impact bacterial viability
  EuCl3 concentration after which growing slow down is observed: > 1 mM
Transformed or not
  Toxicity for E. coli K-12: not toxic
